A short description of series [1]: Drug recovery in human urine administered as single oral dosage. It counts as ADME, tissue-based. As to conditions: read-out: Drug recovery.
Series [2] can be described thus: Drug recovery in human urine assessed as OH-bupropion administered as single oral dosage. It counts as ADME, tissue-based.
Series [3] is described as follows: Drug recovery in human urine assessed as erythrohydrobupropion administered as single oral dosage. It counts as ADME, tissue-based.
Series [4] is described as follows: Drug recovery in human urine assessed as threohydrobupropion administered as single oral dosage. Format: ADME, tissue-based.
A short description of series [5]: Drug excretion in human urine assessed as m-chlorohippuric acid administered as single oral dosage. It counts as ADME, tissue-based.
Series [6] can be described thus: Drug excretion in human urine assessed as polar metabolites formation administered as single oral dosage. Format: ADME, tissue-based.
Series [7] in a line: Drug metabolism in human liver microsomes assessed as NADPH-dependant 4'-OH-bupropion formation at 10 uM preincubated for 5 mins followed by addition of NADPH measured after 20 mins by LC-MS/MS analysis. Format: ADME, Microsome. (Liver microsomes are a subcellular fraction often used to study metabolism.)
A short description of series [8]: Drug metabolism in human liver microsomes assessed as NADPH-dependant metabolite formation at 10 uM preincubated for 5 mins followed by addition of NADPH measured after 20 mins by LC-MS/MS analysis. Format: ADME, Microsome.
Series [9] is described as follows: Drug metabolism in human plasma assessed as 4'-OH-bupropion formation at 300 mg/day by LC/MS/MS analysis. Format: ADME, cell-free.
Series [10] in a line: Drug excretion in human urine assessed as 4'-OH-bupropion formation at 300 mg/day by LC/MS/MS analysis. Format: ADME, tissue-based.
Series [11] is described as follows: Drug metabolism in human plasma assessed as metabolite M2 formation at 300 mg/day by LC/MS/MS analysis. It counts as ADME, cell-free.
The nature of series [12]: Drug metabolism in human urine assessed as metabolite M2 formation at 300 mg/day by LC/MS/MS analysis-MS analysis. Format: ADME, tissue-based.
A short description of series [13]: Drug metabolism in acid deconjugated urine of human subjects assessed as metabolite M3 formation at 300 mg/day by LC/MS/MS analysis. Format: ADME, tissue-based.
Series [14] can be described thus: Plasma concentration in human assessed as 4'-OH-bupropion at 300 mg/day by LC/MS/MS analysis. It counts as ADME, cell-free.
Series [15] is described as follows: Plasma concentration in human assessed as threo-4'-OH-bupropion at 300 mg/day by LC/MS/MS analysis. It counts as ADME, cell-free.
The nature of series [16]: Plasma concentration in human assessed as erythro-4'-OH-bupropion at 300 mg/day by LC/MS/MS analysis. Format: ADME, cell-free.
Series [17] can be described thus: Drug recovery in human urine assessed as free and conjugated drug level administered orally measured over steady state dosing interval. Format: ADME, tissue-based. As to conditions: po.
Series [18] is described as follows: Drug recovery in human urine assessed as free drug level administered orally measured over steady state dosing interval. As to conditions: po. It counts as ADME, tissue-based.
Series [19] in a line: Drug recovery in human urine assessed as conjugated drug level administered orally measured over steady state dosing interval. The conditions noted are these: po. It counts as ADME, tissue-based.
Series [20] deals with T1, Cytochrome P450 2C19 (Homo sapiens, UniProt P33261). As to the kind of experiment: Drug metabolism assessed as recombinant CYP2C19 (unknown origin)-mediated 4'-OH-bupropion formation at 1 uM preincubated for 5 mins followed by addition of NADPH measured after 20 mins by LC-MS/MS method. It counts as ADME. As to conditions: recombinant enzyme.
T1 sequence (P33261 whole entry): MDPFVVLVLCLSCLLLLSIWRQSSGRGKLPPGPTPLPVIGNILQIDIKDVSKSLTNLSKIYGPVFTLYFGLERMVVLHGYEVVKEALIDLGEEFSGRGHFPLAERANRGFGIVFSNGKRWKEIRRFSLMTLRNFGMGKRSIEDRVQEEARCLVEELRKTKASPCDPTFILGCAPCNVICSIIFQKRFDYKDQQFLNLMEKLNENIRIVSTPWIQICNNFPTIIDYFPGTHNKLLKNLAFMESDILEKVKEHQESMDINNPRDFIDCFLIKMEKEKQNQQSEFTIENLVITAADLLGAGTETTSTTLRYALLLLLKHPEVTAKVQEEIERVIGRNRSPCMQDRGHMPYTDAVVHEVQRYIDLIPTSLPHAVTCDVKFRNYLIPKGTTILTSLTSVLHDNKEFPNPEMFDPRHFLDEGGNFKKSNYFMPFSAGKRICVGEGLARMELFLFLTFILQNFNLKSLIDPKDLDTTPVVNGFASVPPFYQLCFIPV
The nature of series [21]: Drug metabolism in acid deconjugated urine of human subjects assessed as metabolite M4 formation at 300 mg/day by LC/MS/MS analysis. It counts as ADME, tissue-based.
Series [22] is described as follows: Drug metabolism in acid deconjugated urine of human subjects assessed as metabolite M6 formation at 300 mg/day by LC/MS/MS analysis. Format: ADME, tissue-based.
A short description of series [23]: Drug metabolism in acid deconjugated urine of human subjects assessed as metabolite M7 formation at 300 mg/day by LC/MS/MS analysis. Format: ADME, tissue-based.
A short description of series [24]: Drug metabolism in plasma of human subjects assessed as metabolite M4 formation at 300 mg/day by LC/MS/MS analysis. It counts as ADME, cell-free.
The nature of series [25]: Drug metabolism in plasma of human subjects assessed as metabolite M6 formation at 300 mg/day by LC/MS/MS analysis. It counts as ADME, cell-free.
Series [26] can be described thus: Drug metabolism in plasma of human subjects assessed as metabolite M7 formation at 300 mg/day by LC/MS/MS analysis. It counts as ADME, cell-free.
The nature of series [27]: Drug level in human liver microsome treated with bupropion at 10 uM preincubated for 5 mins followed by addition of NADPH measured after 20 mins by LC-MS/MS analysis. It counts as ADME. As to conditions: microsomes.
Series [28] can be described thus: Drug metabolism in human liver cytosol assessed as formation of metabolites with m/z transitions of 258 to 184 at 10 uM preincubated for 5 mins followed by addition of NADPH measured after 20 mins by LC-MS/MS analysis. Format: ADME, subcellular.
Series [29] in a line: Drug metabolism in human liver microsomes assessed as formation of metabolites with m/z transitions of 258 to 184 at 10 uM preincubated for 5 mins followed by addition of NADPH measured after 20 mins by LC-MS/MS analysis. It counts as ADME, Microsome.
The nature of series [30]: Drug recovery in urine of human treated with bupropion assessed as free drug level administered orally measured over steady state dosing interval. It counts as ADME, tissue-based. As to conditions: po.
Series [31] in a line: Drug recovery in urine of human treated with bupropion assessed as conjugated drug level administered orally measured over steady state dosing interval. It counts as ADME. The conditions noted are these: po.
Series [32] is described as follows: Drug excretion in acid deconjugated urine of human subjects treated with 300 mg/day bupropion by LC/MS/MS analysis. Format: ADME, tissue-based.
Series [33] addresses T1, Cytochrome P450 2C19. Put plainly: Drug metabolism assessed as recombinant CYP2C19 (unknown origin)-mediated erythro-4'-OH-bupropion formation at 1 uM preincubated for 5 mins followed by addition of NADPH measured after 20 mins by LC-MS/MS method. Format: ADME. The conditions noted are these: recombinant enzyme.
For series [34], the target named is T1, Cytochrome P450 2C19. As to the kind of experiment: Drug metabolism assessed as recombinant CYP2C19 (unknown origin)-mediated threo-4'-OH-bupropion formation at 1 uM preincubated for 5 mins followed by addition of NADPH measured after 20 mins by LC-MS/MS method. It counts as ADME. The conditions noted are these: recombinant enzyme.
Series [35] can be described thus: Drug metabolism in human liver microsomes assessed as hydroxylation of t-butyl group preincubated for 5 mins followed by addition of NADPH measured after 20 mins by LC-MS/MS analysis. Format: ADME, Microsome.
Series [36] in a line: Drug level in human liver microsomes treated with 10 uM erythrohydrobupropion assessed as compound formation with m/z transitions of 258 to 184 preincubated for 5 mins followed by addition of NADPH measured after 20 mins by LC-MS/MS analysis. It counts as ADME, Microsome.
Series [37] can be described thus: Drug level in plasma of human subjects assessed as compound formation treated with 300 mg/day bupropion by LC/MS/MS analysis. It counts as ADME, cell-free.
Series [38] is described as follows: Drug level in human liver microsomes treated with 10 uM threohydrobupropion assessed as compound formation with m/z transitions of 258 to 184 preincubated for 5 mins followed by addition of NADPH measured after 20 mins by LC-MS/MS analysis. It counts as ADME, Microsome.
A short description of series [39]: Drug level in human liver microsomes treated with threohydrobupropion-d9 assessed as hydroxylation of t-butyl group preincubated for 5 mins followed by addition of NADPH measured after 20 mins by LC-MS/MS analysis. It counts as ADME, Microsome.

Consider `CC(NC(C)(C)C)C(=O)c1cccc(Cl)c1` (stereo not given) [BUPROPION], for which, in [1], the dose excreted came out at 23%. The Drug recovery worked out at 23 %ID in [2]; 23 %ID in [3]; 23 %ID in series [4]; 1.4 %ID in [17]; 59 µmol in series [18]; 6.5 µmol in [19]. Further, the Drug excretion was 22 %ID in series [5], 36 %ID in series [6] and “Metabolite_Detected” in series [10]. The Drug metabolism result was “Metabolite_Detected” in series [7]; “Metabolite_Detected” in [8]; “Metabolite_Detected” in series [9]; “Metabolite_Notdetected” in series [11]; “Metabolite_Notdetected” in [12]; “Metabolite_Detected” in [13]. Besides, the Drug metabolism result (at Cytochrome P450 2C19 [20]; in [21]; in series [22]; in series [23]; in [24]; in [25]) was “Metabolite_Detected” throughout. In addition, the Drug metabolism result in [26] was “Metabolite_Detected”. Moreover, the figures for the concentration in series [14], in series [15] and in series [16] were 12 nM, 7 nM and 33 nM, respectively.

Regarding `CC1NC(C)(C)COC1(O)c1cccc(Cl)c1` (stereo not given), the Drug metabolism result in series [27] is recorded as “Metabolite_Detected”; in series [28], “Metabolite_Notdetected”; in series [29] it was “Metabolite_Notdetected”. For the same compound, the Drug recovery was determined as 77 µmol in series [30] and 110 µmol in series [31].

On to `CC(NC(C)(C)C)C(=O)c1ccc(O)c(Cl)c1` (stereo not given), for which the Drug metabolism entry in series [27] is “Metabolite_Detected”; in [28] it was “Metabolite_Notdetected”. Moreover, in [32], the Drug excretion entry is given as “Metabolite_Detected”. The values for the Drug recovery in series [30] and in series [31] were 0.3 µmol and 29 µmol, respectively.

Consider `C[C@@H](NC(C)(C)C)[C@H](O)c1cccc(Cl)c1`, for which the Drug metabolism result in series [27] is given as “Metabolite_Detected”; in series [28], “Metabolite_Notdetected”; in series [29], “Metabolite_Detected”; on Cytochrome P450 2C19 [33] it was “Metabolite_Detected”. Also, the figures for the Drug recovery in series [30] and in series [31] were 63 µmol and 22 µmol, respectively.

For `O=C(O)CNC(=O)c1cccc(Cl)c1`, the Drug recovery in series [30] turned out to be 167 µmol.

`C[C@@H](NC(C)(C)C)[C@@H](O)c1cccc(Cl)c1`: the Drug metabolism result was “Metabolite_Detected” in series [27], “Metabolite_Notdetected” in series [28], “Metabolite_Detected” in series [29] and “Metabolite_Detected” on Cytochrome P450 2C19 [34]. Also, the Drug recovery in series [30] stood at 610 µmol; in [31], 250 µmol.

In the case of `[2H]C([2H])([2H])C(N[C@H](C)[C@@H](O)c1cccc(Cl)c1)(C([2H])([2H])[2H])C([2H])([2H])[2H]`, the Drug metabolism entry in [35] is on record as “Metabolite_Notdetected”.

As for `C[C@@H](NC(C)(C)C)[C@@H](O)c1ccc(O)c(Cl)c1` (relative stereo), the Drug metabolism entry in series [36], in series [29], in series [21] and in series [37] was “Metabolite_Detected” throughout. In addition, the Drug excretion entry in series [32] is “Metabolite_Detected”. The Drug recovery in series [30] is 0.9 µmol; in [31] it was 200 µmol.

Take `C[C@@H](NC(C)(C)C)[C@H](O)c1ccc(O)c(Cl)c1`: the Drug metabolism result in series [29], in series [38], in [39], in series [21] and in series [37] was “Metabolite_Detected” each time. Further, in series [32], the Drug excretion entry is reported as “Metabolite_Detected”. For the same compound, the Drug recovery was 3.3 µmol in series [30] and 160 µmol in series [31].

These data come from ChEMBL document CHEMBL4428126, “Identification and Structural Characterization of Three New Metabolites of Bupropion in Humans” (ACS Med Chem Lett, 2016).
